Tested on: healthy subjects
Test: CANTAB global composite score
Format: in vivo, human
Conditions: 10 mg vs placebo, Day 7
Description: The following list of outcome measures are non-exhaustive. • a. The short-term change from Baseline (Day −1 [Visit 2]) to Day 7 (Visit 5) in cognitive measures of attention, spatial and working memory and executive function was measured by a composite score of the CANTAB Panel (Spatial Working Memory [SWM], Rapid Visual Information Processing [RVP], Paired Associates Learning [PAL]). • b. The short-term change from Baseline (Day −1 [Visit 2]) to Day 7 (Visit 5) in Social Cognition Panel scales (Pictorial Empathy Test [PET], Reading the Mind in the Eyes Test [RMET], Toronto Empathy Questionnaire [TEQ], Social Value Orientation [SVO], Scale of Social Responsibility [SSR]). • c. The change from Baseline (Day −1 [Visit 2]) to Day 28 (Visit 6) in cognitive measures of attention, spatial and working memory and executive function as measured by a composite score of the CANTAB Panel (SWM, RVP, PAL). • d. […] Dose-related differences between cognitive effects of psilocybin at Baseline (Day −1 [Visit 2]), Day 7 (Visit 5) and Day 28 (Visit 6), as measured by a composite score of the CANTAB Panel (SWM, RVP, PAL). • f. Dose-related differences between psychological effects of psilocybin at Baseline (Day −1 [Visit 2]), Day 7 (Visit 5) and Day 84 (Visit 7), as measured by Social Cognition Panel scales (PET, RMET, TEQ, SVO, SSR). • g. […]

CN(C)CCc1c[nH]c2cccc(OP(=O)(O)O)c12 [psilocybin]
CANTAB global composite score, effect size: 0.53
